Tests used:
Format in all cases: protein-complex assay
[1] = molecular target: T1, Gamma-secretase (Homo sapiens) (UniProt Q96BI3+Q9NZ42+Q8WW43+P49768+Q92542+P49810); assay: Inhibition of beta amyloid protein 40 production relative to 4-chloro-N-phenyl-N-(1-(2-(3-(pyrrolidin-1-yl)propoxy)phenyl)ethyl)benzenesulfonamide
Gamma-secretase = assay: Inhibition of beta amyloid protein 40 production
[2] = molecular target: T1, Gamma-secretase (Homo sapiens); assay: Inhibition of beta amyloid protein 40 production relative to 4-chloro-N-(2,5-difluorophenyl)-N-(1-(2-(3-(pyrrolidin-1-yl)propoxy)phenyl)ethyl)benzenesulfonamide

SMILES	Ratio IC50 [1]	IC50 (Gamma-secretase)	Ratio IC50 [2]
CC(c1ccccc1OCCCN1CCCC1)N(c1ccccc1)S(=O)(=O)c1ccc(F)cc1 (centres undefined)	0.03	350 nM	
CC(c1ccccc1OCCCN1CCCC1)N(c1ccccc1)S(=O)(=O)c1ccc(Br)cc1 (centres undefined)	0.005	1900 nM	
CC(c1ccccc1OCCCN1CCCCC1)N(c1cc(F)ccc1F)S(=O)(=O)c1ccc(Cl)cc1 (centres undefined)		2100 nM	
CC(c1ccccc1OCCCN1CCCC1)N(c1ccccc1Cl)S(=O)(=O)c1ccc(Cl)cc1 (centres undefined)		490 nM	4
CC(c1ccccc1OCCCN1CCCC1)N(c1cccc(Cl)c1)S(=O)(=O)c1ccc(Cl)cc1 (centres undefined)		530 nM	3.8
CC(c1ccc(C(=O)c2ccccc2)cc1OCCCN1CCCC1)N(c1ccccc1)S(=O)(=O)c1ccc(Cl)cc1 (centres undefined)		17000 nM	0.1
COc1cccc(N(C(C)c2ccccc2OCCCN2CCCC2)S(=O)(=O)c2ccc(Cl)cc2)c1 (centres undefined)		530 nM	3.8
CC(c1ccc(C(=O)c2ccc(COC(=O)NCCCCCNC(=O)CCCC[C@@H]3SC[C@@H]4NC(=O)N[C@@H]43)cc2)cc1OCCCN1CCCC1)N(c1cc(F)ccc1F)S(=O)(=O)c1ccc(Cl)cc1 (some centres undefined)		2.9 nM	690
CCN(CC)CCCOc1ccccc1C(C)N(c1cc(F)ccc1F)S(=O)(=O)c1ccc(Cl)cc1 (centres undefined)		1000 nM	
CC(c1ccccc1OCCCN1CCCC1)N(c1ccccc1)S(=O)(=O)c1ccc(C(F)(F)F)cc1 (centres undefined)	0.03	400 nM	
CC(c1ccccc1OCCCN1CCOCC1)N(c1cc(F)ccc1F)S(=O)(=O)c1ccc(Cl)cc1 (centres undefined)		4400 nM	
CC(c1ccccc1OCCCN1CCCC1)N(c1ccc(Cl)cc1)S(=O)(=O)c1ccc(Cl)cc1 (centres undefined)		1300 nM	1.5
COc1ccc(N(C(C)c2ccccc2OCCCN2CCCC2)S(=O)(=O)c2ccc(Cl)cc2)cc1 (centres undefined)		1100 nM	1.8
CC(c1ccc(C(=O)c2ccc(COC(=O)NCCCCCCCCNC(=O)CCCC[C@@H]3SC[C@@H]4NC(=O)N[C@@H]43)cc2)cc1OCCCN1CCCC1)N(c1cc(F)ccc1F)S(=O)(=O)c1ccc(Cl)cc1 (some centres undefined)		6.1 nM	328
CC(c1ccc(C(=O)c2ccccc2)cc1OCCCN1CCCC1)N(c1cc(F)c(OCC(=O)NCCCCCNC(=O)CCCC[C@@H]2SC[C@@H]3NC(=O)N[C@@H]32)cc1F)S(=O)(=O)c1ccc(Cl)cc1 (some centres undefined)		10 nM	200
CC(c1ccc(C(=O)c2ccccc2)cc1OCCCN1CCCC1)N(c1cc(F)c(OCC(=O)NCCCCCCCCNC(=O)CCCC[C@@H]2SC[C@@H]3NC(=O)N[C@@H]32)cc1F)S(=O)(=O)c1ccc(Cl)cc1 (some centres undefined)		20 nM	100
CC(c1ccccc1OCCCN1CCCC1)N(c1cccc(C(=O)c2ccccc2)c1)S(=O)(=O)c1ccc(Cl)cc1 (centres undefined)		3000 nM	0.7
CC(c1ccc(C(=O)c2ccccc2)cc1OCCCN1CCCC1)N(c1cc(F)ccc1F)S(=O)(=O)c1ccc(Cl)cc1 (centres undefined)		130 nM	15
CC(c1ccccc1OCCCN1CCCC1)N(c1ccccc1)S(=O)(=O)c1ccc(Cl)cc1 (centres undefined)		10 nM	200
CC(c1ccccc1OCCCN1CCCC1)N(c1ccccc1C(=O)c1ccccc1)S(=O)(=O)c1ccc(Cl)cc1 (centres undefined)		1200 nM	1.7
CC(c1ccccc1OCCCN1CCCC1)N(c1cc(F)ccc1F)S(=O)(=O)c1ccc(Cl)cc1 (centres undefined)		2000 nM	
COc1ccccc1N(C(C)c1ccccc1OCCCN1CCCC1)S(=O)(=O)c1ccc(Cl)cc1 (centres undefined)		470 nM	4.3
CC(c1ccccc1OCCCN1CCCC1)N(c1ccc(C(=O)c2ccccc2)cc1)S(=O)(=O)c1ccc(Cl)cc1 (centres undefined)		3200 nM	0.6
CC(c1ccccc1OCCCN1CCCC1)N(c1ccccc1)S(=O)(=O)c1ccccc1 (centres undefined)	0.01	690 nM	

Reference: ChEMBL document CHEMBL1145309, “Synthesis of biotinylated photoaffinity probes based on arylsulfonamide gamma-secretase inhibitors” (Bioorg Med Chem Lett, 2006)
